This note sets out measurements from PMC6446070, “Discovery of novel isoflavone derivatives as AChE/BuChE dual-targeted inhibitors: synthesis, biological evaluation and molecular modelling” (Journal of Enzyme Inhibition and Medicinal Chemistry, 2017).

One experiment deals with T1, BuChE (Homo sapiens, UniProt P06276).
T1 construct: BuChE (3.4 U/mg) was obtained from human plasma; from tissue; host or cells: human plasma
Put plainly: biochemical. Conditions: for inhibition at 50 µM: read-out: Inhibition % at 50 μM BuChE. As for the experimental part: (§1) To measure in vitro AChE/BuChE activity, modified Ellman's method[27–30] was performed using a 96-well plate reader (BioTek ELx808). AChE (0.5 U/mg) was extracted from rat cortex while BuChE (3.4 U/mg) was obtained from human plasma. Each well contained 50 μl potassium phosphate buffer (KH2PO4/K2HPO4, 0.1 M, pH 8.0), 25 μl test compounds and 25 μl enzyme. […] They were pre-incubated for 60 min at 37 °C, and then 125 μl 5,5′-dithiobis-2-nitrobenzoic acid (DNTB, 3 mM in buffer) was added. […] A control experiment was performed under the same condition without any inhibitor and the blank contained buffer, water, DTNB and substrate. The described method was also performed for BuChE bioassay.

A further experiment addresses T2, AChE (Rattus norvegicus, UniProt P37136).
T2 construct: AChE (0.5 U/mg) was extracted from rat cortex; from tissue; host or cells: rat cortex
Put plainly: biochemical. To be noted: for inhibition at 50 µM: read-out: Inhibition % at 50 μM AChE. As to the method: as §1

Setting [1] is: BuChE from human plasma, read-out: IC50 (μM) BuChE.
Where [2] appears, read: 50 μM compound, BuChE from human plasma, pre-incubated 60 min at 37 °C.
[3] abbreviates: 50 μM compound, AChE extracted from rat cortex, pre-incubated 60 min at 37 °C.

SMILES strings stand for the structures. Where two headings read alike, the source gives them in different places.

T1 sequence (P06276 29-602): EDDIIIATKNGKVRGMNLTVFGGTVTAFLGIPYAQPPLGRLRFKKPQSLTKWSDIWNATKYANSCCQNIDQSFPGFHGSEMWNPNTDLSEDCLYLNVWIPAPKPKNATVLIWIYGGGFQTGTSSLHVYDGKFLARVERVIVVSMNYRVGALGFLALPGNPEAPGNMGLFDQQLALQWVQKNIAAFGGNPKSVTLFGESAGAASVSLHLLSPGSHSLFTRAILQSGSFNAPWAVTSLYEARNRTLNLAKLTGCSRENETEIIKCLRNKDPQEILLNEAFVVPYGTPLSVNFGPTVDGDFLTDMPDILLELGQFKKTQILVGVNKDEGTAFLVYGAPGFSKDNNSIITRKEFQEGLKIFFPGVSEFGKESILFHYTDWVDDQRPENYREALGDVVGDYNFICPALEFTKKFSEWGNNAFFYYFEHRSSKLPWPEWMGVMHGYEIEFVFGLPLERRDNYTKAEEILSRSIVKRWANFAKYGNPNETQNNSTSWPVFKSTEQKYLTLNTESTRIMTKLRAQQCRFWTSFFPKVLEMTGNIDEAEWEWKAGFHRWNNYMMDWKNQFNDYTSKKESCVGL
T2 sequence (P37136 32-614): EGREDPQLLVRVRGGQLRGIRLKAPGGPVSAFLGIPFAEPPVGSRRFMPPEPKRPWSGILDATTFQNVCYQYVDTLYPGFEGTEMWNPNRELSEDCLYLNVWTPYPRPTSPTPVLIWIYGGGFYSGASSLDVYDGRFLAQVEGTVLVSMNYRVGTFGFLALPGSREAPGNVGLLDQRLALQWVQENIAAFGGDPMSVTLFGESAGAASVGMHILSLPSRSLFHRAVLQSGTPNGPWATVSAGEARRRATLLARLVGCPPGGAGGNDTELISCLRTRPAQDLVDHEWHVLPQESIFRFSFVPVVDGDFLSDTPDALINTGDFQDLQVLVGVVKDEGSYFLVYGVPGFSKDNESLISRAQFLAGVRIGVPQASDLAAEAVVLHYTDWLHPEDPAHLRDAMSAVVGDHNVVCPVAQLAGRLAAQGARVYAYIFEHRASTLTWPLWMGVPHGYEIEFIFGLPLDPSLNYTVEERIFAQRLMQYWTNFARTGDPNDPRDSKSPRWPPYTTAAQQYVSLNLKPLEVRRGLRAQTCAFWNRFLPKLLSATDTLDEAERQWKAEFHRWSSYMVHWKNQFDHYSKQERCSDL

Regarding `COc1ccc(-c2coc3cc(OCCN4CCCCC4C)ccc3c2=O)cc1` (stereo not shown) [G], the IC50 is 3.37 µM at BuChE (setting [1]) and 1.47 µM on AChE (AChE extracted from rat cortex).
As to `CC(C)NP(=O)(NC(C)C)OP(=O)(NC(C)C)NC(C)C` [Iso-OMPA, tetraisopropyl pyrophosphoramide, reference compound], on BuChE, the inhibition at 50 µM came to 94.3%.
For the molecule `COc1ccc(-c2coc3cc(OCCN4CCCCC4)cc(O)c3c2=O)cc1` [compound 1, 5-Hydroxy-3-(4-mehtoxyphenyl)-7-(2-(piperidin-1-yl)ethoxy)-4H-chromen-4-one], the “Inhibition % at 50 μM BuChE” value at BuChE (setting [2]) is 95.74%. The IC50 is 4.12 µM at BuChE (setting [1]) and 10.3 µM at AChE (AChE extracted from rat cortex). On AChE (setting [3]), the “Inhibition % at 50 μM AChE” value was determined as 71.10%.
On to `COc1ccc(-c2coc3cc(OCCCN4CCCCC4)ccc3c2=O)cc1` [compound 2, 3-(4-Methoxyphenyl)-7-(3-(piperidin-1-yl)propoxy)-4H-chromen-4-one], for which the inhibition at 50 µM at BuChE (setting [2]) stood at 97%; on AChE (setting [3]), 28.3%. Besides, the IC50 at BuChE (setting [1]) was found to be 23.2 µM.
With `COc1ccc(-c2coc3cc(OCCCCN4CCCCC4)ccc3c2=O)cc1` [compound 3, 3-(4-Methoxyphenyl)-7-(4-(piperidin-1-yl)butoxy)-4-H-chromen-4-one], at BuChE (setting [2]), the “Inhibition % at 50 μM BuChE” value was found to be 98.11%. Besides, the IC50 at BuChE (setting [1]) is 11.1 µM; against AChE (AChE extracted from rat cortex), 46.4 µM. Moreover, the “Inhibition % at 50 μM AChE” value at AChE (setting [3]) is reported as 85.65%.
With `CCN(C)CCOc1ccc2c(=O)c(-c3ccc(OC)cc3)coc2c1` [compound 4, 7-(2-(Ethyl(methyl)amino)ethoxy)-3-(4-methoxyphenyl)-4H-chromen-4-one], the results for the inhibition at 50 µM at BuChE (setting [2]) and on AChE (setting [3]) were 84.1% and 58.7%, respectively.
On to `CCN(C)CCCOc1ccc2c(=O)c(-c3ccc(OC)cc3)coc2c1` [compound 5, 7-(3-(Ethyl(methyl)amino)propoxy)-3-(4-methoxyphenyl)-4H-chromen-4-one], for which the inhibition at 50 µM stood at 91.3% at BuChE (setting [2]) and 25.4% at AChE (setting [3]).
For `CCN(C)CCCCOc1ccc2c(=O)c(-c3ccc(OC)cc3)coc2c1` [compound 6, 7-(4-(Ethyl(methyl)amino)butoxy)-3-(4-methoxyphenyl)-4H-chromen-4-one] the same measures were 94.8% and 63.8%.
`COc1ccc(-c2coc3cc(OCCNCCc4c[nH]c5ccc(OC)cc45)ccc3c2=O)cc1` [compound 7, 7-(2-((2-(5-Methoxy-1H-indol-3-yl)ethyl)amino)ethoxy)-3-(4-methoxyphenyl)-4H-chr-omen-4-one]: the “Inhibition % at 50 μM BuChE” value on BuChE (setting [2]) was 45.74%. The “Inhibition % at 50 μM AChE” value at AChE (setting [3]) came to 3.68%.
Consider `COc1ccc(-c2coc3cc(OCCCNCCc4c[nH]c5ccc(OC)cc45)ccc3c2=O)cc1` [compound 8, 7-(3-((2-(5-Methoxy-1H-indol-3-yl)ethyl)amino)propoxy)-3-(4-methoxyphenyl)-4H-chromen-4-one], for which the inhibition at 50 µM on BuChE (setting [2]) is 60.6%; on AChE (setting [3]) it was 2.42%. The IC50 on BuChE (setting [1]) was 15.6 µM.
In the case of `COc1ccc(-c2coc3cc(OCCCCNCCc4c[nH]c5ccc(OC)cc45)ccc3c2=O)cc1` [compound 9, 7-(4((2-(5-Methoxy-1H-indol-3-yl)ethyl)amino)butoxy)-3-(4-methoxyphenyl)-4H-chromen-4-one], the inhibition at 50 µM stood at 37.9% on BuChE (setting [2]) and 0.72% on AChE (setting [3]).
For `COc1ccc(-c2coc3cc(OCCN(C)Cc4ccccc4)ccc3c2=O)cc1` [compound 10, 7-(2-(Benzyl(methyl)amino)ethoxy)-3-(4-methoxyphenyl)-4H-chromen-4-one] the same measures were 2.72% and 3.34%.
For `COc1ccc(-c2coc3cc(OCCN(Cc4ccccc4)Cc4ccccc4)ccc3c2=O)cc1` [compound 11, 7-(2-(Dibenzylamino)ethoxy)-3-(4-methoxyphenyl)-4H-chromen-4-one] the same measures were -18.5% and -6.27%.
For `C#CCNCCOc1ccc2c(=O)c(-c3ccc(OC)cc3)coc2c1` [compound 12, 3-(4-Methoxyphenyl)-7-(2-(prop-2-yn-1-ylamino)ethoxy)-4H-chromen-4-one] the same measures were -16.9% and 5.47%.
As for `COc1ccc(-c2coc3cc(OCCNC45CC6C[C@@](C)(C4)C[C@](C)(C6)C5)ccc3c2=O)cc1` [compound 13, 7-(2-(((3 R,5 S,7r)-3,5-dimethyladamantan-1-yl)amino)ethoxy)-3-(4-methoxyphenyl)-4H-chromen-4-one], the “Inhibition % at 50 μM BuChE” value at BuChE (setting [2]) is given as −6.62%. The “Inhibition % at 50 μM AChE” value at AChE (setting [3]) stood at 17.61%.
For the molecule `O=c1c(-c2ccc(O)cc2)coc2cc(OCCN3CCCCC3)ccc12` [compound 14, 3-(4-Hydroxyphenyl)-7-(2-(piperidin-1-yl)ethoxy)-4H-chromen-4-one], the inhibition at 50 µM at BuChE (setting [2]) turned out to be 99.9%; on AChE (setting [3]), 79.4%. The concentration for half-maximal inhibition (IC50) was 7.66 µM at BuChE (setting [1]) and 9.75 µM against AChE (AChE extracted from rat cortex).
In the case of `O=c1c(-c2ccc(O)cc2)coc2cc(OCCN3CCCC3)ccc12` [compound 15, 3-(4-Hyroxyphenyl)-7-(2-(pyrrolidin-1-yl)ethoxy)-4H-chromen-4-one], the “Inhibition % at 50 μM BuChE” value at BuChE (setting [2]) amounted to 99.88%. Besides, the IC50 at BuChE (setting [1]) was 7.19 µM. Further, the “Inhibition % at 50 μM AChE” value at AChE (setting [3]) is 75.22%.
For the molecule `O=c1c(-c2ccc(OCCN3CCCCC3)cc2)coc2cc(OCCN3CCCCC3)ccc12` [compound 16, 7-(2-(Piperidin-1-yl)ethoxy)-3-(4-(2-(piperidin-1-yl)ethoxy)phenyl)-4H-chrom en-4-one], the inhibition at 50 µM is 99.7% at BuChE (setting [2]) and 100% at AChE (setting [3]). Further, the IC50 at BuChE (setting [1]) turned out to be 5.92 µM; on AChE (AChE extracted from rat cortex), 4.6 µM.
Take `COc1ccc(-c2coc3cc(OCC(=O)N4CCCCC4)ccc3c2=O)cc1` [compound 17, 3-(4-Methoxyphenyl)-7-(2-oxo-2-(piperidin-1-yl)ethoxy)-4H-chromen4-one]: the values for the inhibition at 50 µM on BuChE (setting [2]) and on AChE (setting [3]) were -2.83% and 0.54%, respectively.
For `COc1ccc(-c2coc3cc(OCCC(=O)N4CCCCC4)ccc3c2=O)cc1` [compound 18, 3-(4-Methoxyphenyl)-7-(3-oxo-3-(piperidin-1-yl)propoxy)-4H-chromen-4-one], the inhibition at 50 µM on BuChE (setting [2]) is 5.59%; on AChE (setting [3]), -2.36%.
On to `COc1ccc(-c2coc3cc(OCCOC(=O)N4CCCCC4)ccc3c2=O)cc1` [compound 19, 2-((3-(4-Methoxyphenyl)-4-oxo-4H-chromen-7-yl)oxy)ethyl piperidine-1-carboxylate], for which the IC50 against BuChE was found to be 9.59 µM. In addition, the inhibition at 50 µM on BuChE was 53%; at AChE, -11.6%.
For the molecule `C#CCNC(=O)OCCOc1ccc2c(=O)c(-c3ccc(OC)cc3)coc2c1` [compound 20, 2-((3-(4-Methoxyphenyl)-4-oxo-4H-chromen-7-yl)oxy)ethyl prop-2-yn-1-ylc-arbamate], the “Inhibition % at 50 μM BuChE” value on BuChE (setting [2]) is −5.49%. In addition, the “Inhibition % at 50 μM AChE” value at AChE (setting [3]) is listed as −4.84%.

By IC50 is commonly meant the point on the concentration scale where inhibition reaches its midpoint. One may read the inhibition as the relative decrease from the control value, in per cent.
